In paper PMC6915728 (Nature Communications, 2019):
Like-named read-outs stand apart in the source and are kept apart here.

How the values were obtained:
[1] = tested on: E. coli BW25113 overexpression strains (ASKA plasmids); experiment: Minimum inhibitory concentration (MIC), serial broth dilution, single-gene overexpression strains vs empty-vector control; type: cell-based, Escherichia coli; conditions: broth dilution, MS medium, 100 µM IPTG, 30 °C, 20-24 h, OD600, 3 replicates
Method in brief: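 E. coli overexpression strains grown in MS medium with chloramphenicol, induced with 100 µM IPTG for 1 h at 30 °C, then about half-million cells inoculated into 12-step AMP dilutions (typically 1.2-fold steps). OD600 read after 20–24 h at 30 °C with shaking; triplicate strains compared with empty-vector control.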

[2] = tested on: AMP-evolved E. coli lines; conditions: ref Spohn et al 2019, cited from earlier work
Description: Supplement 41467_2019_13618_MOESM13_ESM.xlsx, sheet "Figure 6 and S15" | column: A comprehensive dataset of antimicrobial susceptibility of AMP-adapted lines to antimicrobial peptides (AMPs).

E. coli = conditions: previous laboratory evolution experiment; cited from earlier work
Description: The results presented in this study may have important implications for the development of AMP-based therapies. Previous works reported several instances of cross-resistance interactions between membrane-targeting peptides (Supplementary Data 1), however, the potential for cross-resistance across AMPs with different modes of action has remained poorly understood. Specifically, while cross-resistance between host and therapeutic AMPs is certainly a realistic danger, not all AMPs are equally prone to cross-resistance. Given the immense diversity of AMPs with major differences in physicochemical ...

bacterial membrane = conditions: literature mining; ref superscript numbers in the cell, listed in Supplementary Data 7 sheet References; cited from earlier work
Description: Supplement 41467_2019_13618_MOESM10_ESM.xlsx, sheet "AMP details" | column: Pore formation

FLGKVFKLASKVFKAVFGKV [R8, synthetic AMP (from linguistic model); cluster C1]
Relative MIC ([1]; overexpression strain mlaD, MIC of the overexpression strain / MIC of the control strain (wild-type carrying the empty plasmid)): 1
Relative MIC ([1]; overexpression strain mzrA, MIC of overexpression strain / MIC of empty-plasmid control): 1.3
Relative MIC ([1]; overexpression strain yhbJ, MIC of overexpression strain / MIC of empty-plasmid control): 1
Relative change in MIC (MIC of the AMP-adpated line / MIC of the ancestral strain) ([2]; AMP-adapted line BAC5_3): 1
Relative change in MIC (MIC of the AMP-adpated line / MIC of the ancestral strain) ([2]; AMP-adapted line BAC5_5): 1
Relative change in MIC (MIC of the AMP-adpated line / MIC of the ancestral strain) ([2]; AMP-adapted line BAC5_7): 1.1
Relative change in MIC (MIC of the AMP-adpated line / MIC of the ancestral strain) ([2]; AMP-adapted line BAC5_10): 1.1
Relative change in MIC (MIC of the AMP-adpated line / MIC of the ancestral strain) ([2]; AMP-adapted line CAP18_2): 1.2
Relative change in MIC (MIC of the AMP-adpated line / MIC of the ancestral strain) ([2]; AMP-adapted line CAP18_5): 1.1
Relative change in MIC (MIC of the AMP-adpated line / MIC of the ancestral strain) ([2]; AMP-adapted line CAP18_6): 1
Relative change in MIC (MIC of the AMP-adpated line / MIC of the ancestral strain) ([2]; AMP-adapted line CAP18_8): 1.1
Relative change in MIC (MIC of the AMP-adpated line / MIC of the ancestral strain) ([2]; AMP-adapted line CAP18_10): 1.2
Relative change in MIC (MIC of the AMP-adpated line / MIC of the ancestral strain) ([2]; AMP-adapted line HBD3_3): 1
Relative change in MIC (MIC of the AMP-adpated line / MIC of the ancestral strain) ([2]; AMP-adapted line HBD3_6): 1.2
Relative change in MIC (MIC of the AMP-adpated line / MIC of the ancestral strain) ([2]; AMP-adapted line HBD3_8): 1
Relative change in MIC (MIC of the AMP-adpated line / MIC of the ancestral strain) ([2]; AMP-adapted line HBD3_10): 1
Relative change in MIC (MIC of the AMP-adpated line / MIC of the ancestral strain) ([2]; AMP-adapted line LL37_1): 1.2
Relative change in MIC (MIC of the AMP-adpated line / MIC of the ancestral strain) ([2]; AMP-adapted line LL37_3): 1.2
Relative change in MIC (MIC of the AMP-adpated line / MIC of the ancestral strain) ([2]; AMP-adapted line LL37_6): 1
Relative change in MIC (MIC of the AMP-adpated line / MIC of the ancestral strain) ([2]; AMP-adapted line LL37_7): 1.1
Relative change in MIC (MIC of the AMP-adpated line / MIC of the ancestral strain) ([2]; AMP-adapted line LL37_10): 1.2
Relative change in MIC (MIC of the AMP-adpated line / MIC of the ancestral strain) ([2]; AMP-adapted line PEX_1): 1.1
Relative change in MIC (MIC of the AMP-adpated line / MIC of the ancestral strain) ([2]; AMP-adapted line PEX_4): 1.2
Relative change in MIC (MIC of the AMP-adpated line / MIC of the ancestral strain) ([2]; AMP-adapted line PEX_5): 1.1
Relative change in MIC (MIC of the AMP-adpated line / MIC of the ancestral strain) ([2]; AMP-adapted line PEX_6): 1
Relative change in MIC (MIC of the AMP-adpated line / MIC of the ancestral strain) ([2]; AMP-adapted line PEX_7): 1.2
Relative change in MIC (MIC of the AMP-adpated line / MIC of the ancestral strain) ([2]; AMP-adapted line PR39_1): 1.1
Relative change in MIC (MIC of the AMP-adpated line / MIC of the ancestral strain) ([2]; AMP-adapted line PR39_2): 1
Relative change in MIC (MIC of the AMP-adpated line / MIC of the ancestral strain) ([2]; AMP-adapted line PR39_5): 1
Relative change in MIC (MIC of the AMP-adpated line / MIC of the ancestral strain) ([2]; AMP-adapted line PR39_7): 1
Relative change in MIC (MIC of the AMP-adpated line / MIC of the ancestral strain) ([2]; AMP-adapted line PR39_10): 1
Relative change in MIC (MIC of the AMP-adpated line / MIC of the ancestral strain) ([2]; AMP-adapted line PROA_2): 1
Relative change in MIC (MIC of the AMP-adpated line / MIC of the ancestral strain) ([2]; AMP-adapted line PROA_3): 1
Relative change in MIC (MIC of the AMP-adpated line / MIC of the ancestral strain) ([2]; AMP-adapted line PROA_7): 1
Relative change in MIC (MIC of the AMP-adpated line / MIC of the ancestral strain) ([2]; AMP-adapted line PROA_8): 1
Relative change in MIC (MIC of the AMP-adpated line / MIC of the ancestral strain) ([2]; AMP-adapted line PROA_9): 1
Relative change in MIC (MIC of the AMP-adpated line / MIC of the ancestral strain) ([2]; AMP-adapted line PXB_2): 1
Relative change in MIC (MIC of the AMP-adpated line / MIC of the ancestral strain) ([2]; AMP-adapted line PXB_5): 1.7
Relative change in MIC (MIC of the AMP-adpated line / MIC of the ancestral strain) ([2]; AMP-adapted line PXB_6): 1.9
Relative change in MIC (MIC of the AMP-adpated line / MIC of the ancestral strain) ([2]; AMP-adapted line PXB_8): 1.9
Relative change in MIC (MIC of the AMP-adpated line / MIC of the ancestral strain) ([2]; AMP-adapted line PXB_10): 1.2
Emergence of resistant lines in laboratory evolution (E. coli): did not result in any significant resistant lines

SWLSKTAKKLENSAKKRISEGIAIAIQGGPR [CP1, Cecropin P1, antimicrobial peptide, source Ascaris suum; disrupts cell membrane; cluster C1]
Relative MIC ([1]; overexpression strain nikB, MIC of overexpression strain / MIC of empty-plasmid control): 0.8
Relative MIC ([1]; overexpression strain ptsN, MIC of overexpression strain / MIC of empty-plasmid control): 0.76
Relative MIC ([1]; overexpression strain yiaJ, MIC of overexpression strain / MIC of empty-plasmid control): 0.8
Relative change in MIC (MIC of the AMP-adpated line / MIC of the ancestral strain) ([2]; AMP-adapted line BAC5_3): 1.1
Relative change in MIC (MIC of the AMP-adpated line / MIC of the ancestral strain) ([2]; AMP-adapted line BAC5_5): 1.2
Relative change in MIC (MIC of the AMP-adpated line / MIC of the ancestral strain) ([2]; AMP-adapted line BAC5_7): 1
Relative change in MIC (MIC of the AMP-adpated line / MIC of the ancestral strain) ([2]; AMP-adapted line BAC5_10): 1
Relative change in MIC (MIC of the AMP-adpated line / MIC of the ancestral strain) ([2]; AMP-adapted line CAP18_2): 1
Relative change in MIC (MIC of the AMP-adpated line / MIC of the ancestral strain) ([2]; AMP-adapted line CAP18_5): 1.2
Relative change in MIC (MIC of the AMP-adpated line / MIC of the ancestral strain) ([2]; AMP-adapted line CAP18_6): 1
Relative change in MIC (MIC of the AMP-adpated line / MIC of the ancestral strain) ([2]; AMP-adapted line CAP18_8): 1
Relative change in MIC (MIC of the AMP-adpated line / MIC of the ancestral strain) ([2]; AMP-adapted line CAP18_10): 1
Relative change in MIC (MIC of the AMP-adpated line / MIC of the ancestral strain) ([2]; AMP-adapted line HBD3_3): 1.1
Relative change in MIC (MIC of the AMP-adpated line / MIC of the ancestral strain) ([2]; AMP-adapted line HBD3_6): 1.1
Relative change in MIC (MIC of the AMP-adpated line / MIC of the ancestral strain) ([2]; AMP-adapted line HBD3_8): 1.2
Relative change in MIC (MIC of the AMP-adpated line / MIC of the ancestral strain) ([2]; AMP-adapted line HBD3_10): 1.2
Relative change in MIC (MIC of the AMP-adpated line / MIC of the ancestral strain) ([2]; AMP-adapted line LL37_1): 0.8
Relative change in MIC (MIC of the AMP-adpated line / MIC of the ancestral strain) ([2]; AMP-adapted line LL37_3): 1
Relative change in MIC (MIC of the AMP-adpated line / MIC of the ancestral strain) ([2]; AMP-adapted line LL37_6): 0.9
Relative change in MIC (MIC of the AMP-adpated line / MIC of the ancestral strain) ([2]; AMP-adapted line LL37_7): 1.1
Relative change in MIC (MIC of the AMP-adpated line / MIC of the ancestral strain) ([2]; AMP-adapted line LL37_10): 0.9
Relative change in MIC (MIC of the AMP-adpated line / MIC of the ancestral strain) ([2]; AMP-adapted line PEX_1): 1.1
Relative change in MIC (MIC of the AMP-adpated line / MIC of the ancestral strain) ([2]; AMP-adapted line PEX_4): 1.2
Relative change in MIC (MIC of the AMP-adpated line / MIC of the ancestral strain) ([2]; AMP-adapted line PEX_5): 1.1
Relative change in MIC (MIC of the AMP-adpated line / MIC of the ancestral strain) ([2]; AMP-adapted line PEX_6): 1
Relative change in MIC (MIC of the AMP-adpated line / MIC of the ancestral strain) ([2]; AMP-adapted line PEX_7): 1.3
Relative change in MIC (MIC of the AMP-adpated line / MIC of the ancestral strain) ([2]; AMP-adapted line PR39_1): 1.1
Relative change in MIC (MIC of the AMP-adpated line / MIC of the ancestral strain) ([2]; AMP-adapted line PR39_2): 1.1
Relative change in MIC (MIC of the AMP-adpated line / MIC of the ancestral strain) ([2]; AMP-adapted line PR39_5): 1
Relative change in MIC (MIC of the AMP-adpated line / MIC of the ancestral strain) ([2]; AMP-adapted line PR39_7): 1
Relative change in MIC (MIC of the AMP-adpated line / MIC of the ancestral strain) ([2]; AMP-adapted line PR39_10): 0.8
Relative change in MIC (MIC of the AMP-adpated line / MIC of the ancestral strain) ([2]; AMP-adapted line PROA_2): 1.1
Relative change in MIC (MIC of the AMP-adpated line / MIC of the ancestral strain) ([2]; AMP-adapted line PROA_3): 0.9
Relative change in MIC (MIC of the AMP-adpated line / MIC of the ancestral strain) ([2]; AMP-adapted line PROA_7): 0.8
Relative change in MIC (MIC of the AMP-adpated line / MIC of the ancestral strain) ([2]; AMP-adapted line PROA_8): 0.9
Relative change in MIC (MIC of the AMP-adpated line / MIC of the ancestral strain) ([2]; AMP-adapted line PROA_9): 1.1
Relative change in MIC (MIC of the AMP-adpated line / MIC of the ancestral strain) ([2]; AMP-adapted line PXB_2): 1.3
Relative change in MIC (MIC of the AMP-adpated line / MIC of the ancestral strain) ([2]; AMP-adapted line PXB_5): 1
Relative change in MIC (MIC of the AMP-adpated line / MIC of the ancestral strain) ([2]; AMP-adapted line PXB_6): 1.2
Relative change in MIC (MIC of the AMP-adpated line / MIC of the ancestral strain) ([2]; AMP-adapted line PXB_8): 1.1
Relative change in MIC (MIC of the AMP-adpated line / MIC of the ancestral strain) ([2]; AMP-adapted line PXB_10): 1.2
Pore formation (whether AMP makes pores in the bacterial membrane) (bacterial membrane): Yes6-8
Emergence of resistant lines in laboratory evolution (E. coli): did not result in any significant resistant lines
